Measured values as given in publication PMC3021545, “Insulin Reduces Neuronal Excitability by Turning on GABAA Channels that Generate Tonic Current” (PLoS ONE, 2011).

Test system: T1, insulin-induced high-affinity extrasynaptic GABAA channels (α5, γ2 containing; α5βγ2) of CA1 pyramidal neurons
T1 construct: gene Gabra5
Conditions: insulin-treated (1 nM) slices; -60 mV; ambient GABA; 20-22 °C; inverse agonist

CCOC(=O)c1ncn2c1[C@@H]1CCCN1C(=O)c1cc(OC)ccc1-2 [L655, 708]
% inhibition at 5 μM: 85±4%
